PMC6437697 (Journal of Medicinal Chemistry, 2019)

Key:
Assay in all cases: KINOMEscan
Assay type in all cases: binding
Details in all cases: read-out: % control activity remaining
AAK1 = molecular target: T1, AAK1 (Homo sapiens, UniProt Q2M2I8)
T1 construct: purchased Eurofins DiscoverX KINOMEscan

YANK2 = molecular target: T2, YANK2 (Homo sapiens, UniProt Q9NY57)
T2 construct: purchased Eurofins DiscoverX KINOMEscan

[1] = molecular target: T3, RPS6KA4(Kin.Dom.1-N-terminal) (Homo sapiens, UniProt O75676)
T3 construct: RPS6KA4(Kin.Dom.1-N-terminal); purchased Eurofins DiscoverX KINOMEscan
T3 sequence (O75676 33-301 limits assumed): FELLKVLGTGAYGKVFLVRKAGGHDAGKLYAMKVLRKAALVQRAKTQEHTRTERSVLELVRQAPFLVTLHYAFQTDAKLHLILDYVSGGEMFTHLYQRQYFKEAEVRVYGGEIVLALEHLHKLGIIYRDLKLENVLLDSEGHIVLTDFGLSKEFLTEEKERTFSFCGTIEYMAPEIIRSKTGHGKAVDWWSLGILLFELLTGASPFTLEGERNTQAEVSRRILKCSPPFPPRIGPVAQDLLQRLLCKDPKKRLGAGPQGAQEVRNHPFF

SGK2 = molecular target: T4, SGK2 (Homo sapiens, UniProt Q9HBY8)
T4 construct: purchased Eurofins DiscoverX KINOMEscan
T4 sequence (Q9HBY8 1-367): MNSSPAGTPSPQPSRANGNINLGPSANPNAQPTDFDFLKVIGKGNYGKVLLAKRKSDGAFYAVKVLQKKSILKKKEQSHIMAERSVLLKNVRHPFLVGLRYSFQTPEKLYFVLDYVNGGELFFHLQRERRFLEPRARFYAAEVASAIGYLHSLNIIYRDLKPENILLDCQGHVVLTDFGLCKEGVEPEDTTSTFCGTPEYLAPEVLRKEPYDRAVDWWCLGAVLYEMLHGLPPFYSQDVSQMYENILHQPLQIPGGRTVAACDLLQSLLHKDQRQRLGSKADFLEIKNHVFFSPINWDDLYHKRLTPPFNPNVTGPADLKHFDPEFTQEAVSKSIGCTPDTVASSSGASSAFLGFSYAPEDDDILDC

CLK3 = molecular target: T5, CLK3 (Homo sapiens, UniProt P49761)
T5 construct: purchased Eurofins DiscoverX KINOMEscan

MARK2 = molecular target: T6, MARK2 (Homo sapiens, UniProt Q7KZI7)
T6 construct: purchased Eurofins DiscoverX KINOMEscan
T6 sequence (Q7KZI7 whole entry): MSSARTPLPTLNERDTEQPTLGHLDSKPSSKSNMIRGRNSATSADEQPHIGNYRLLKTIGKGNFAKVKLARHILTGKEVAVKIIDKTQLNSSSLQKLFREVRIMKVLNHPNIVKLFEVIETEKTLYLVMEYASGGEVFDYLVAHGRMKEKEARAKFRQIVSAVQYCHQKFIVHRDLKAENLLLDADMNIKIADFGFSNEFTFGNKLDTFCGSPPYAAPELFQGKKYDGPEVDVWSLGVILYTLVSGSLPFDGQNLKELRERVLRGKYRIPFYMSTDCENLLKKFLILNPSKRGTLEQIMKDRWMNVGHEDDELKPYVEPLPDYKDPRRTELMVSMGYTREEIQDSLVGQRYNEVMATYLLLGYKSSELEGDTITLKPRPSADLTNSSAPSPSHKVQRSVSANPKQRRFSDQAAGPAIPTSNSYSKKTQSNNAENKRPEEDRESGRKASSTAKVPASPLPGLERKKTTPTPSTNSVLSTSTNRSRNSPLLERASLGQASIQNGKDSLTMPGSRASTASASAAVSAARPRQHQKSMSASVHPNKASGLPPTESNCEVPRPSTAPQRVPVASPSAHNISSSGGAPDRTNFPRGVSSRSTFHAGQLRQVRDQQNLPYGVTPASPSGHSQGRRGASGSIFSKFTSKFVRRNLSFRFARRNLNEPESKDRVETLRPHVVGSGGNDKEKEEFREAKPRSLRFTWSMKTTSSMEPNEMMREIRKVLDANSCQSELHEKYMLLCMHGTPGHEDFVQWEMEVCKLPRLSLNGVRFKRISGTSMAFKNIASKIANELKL

MAP3K4 = molecular target: T7, MAP3K4 (Homo sapiens, UniProt Q9Y6R4)
T7 construct: purchased Eurofins DiscoverX KINOMEscan

MKNK2 = molecular target: T8, MKNK2 (Homo sapiens, UniProt Q9HBH9)
T8 construct: purchased Eurofins DiscoverX KINOMEscan
T8 sequence (Q9HBH9 whole entry): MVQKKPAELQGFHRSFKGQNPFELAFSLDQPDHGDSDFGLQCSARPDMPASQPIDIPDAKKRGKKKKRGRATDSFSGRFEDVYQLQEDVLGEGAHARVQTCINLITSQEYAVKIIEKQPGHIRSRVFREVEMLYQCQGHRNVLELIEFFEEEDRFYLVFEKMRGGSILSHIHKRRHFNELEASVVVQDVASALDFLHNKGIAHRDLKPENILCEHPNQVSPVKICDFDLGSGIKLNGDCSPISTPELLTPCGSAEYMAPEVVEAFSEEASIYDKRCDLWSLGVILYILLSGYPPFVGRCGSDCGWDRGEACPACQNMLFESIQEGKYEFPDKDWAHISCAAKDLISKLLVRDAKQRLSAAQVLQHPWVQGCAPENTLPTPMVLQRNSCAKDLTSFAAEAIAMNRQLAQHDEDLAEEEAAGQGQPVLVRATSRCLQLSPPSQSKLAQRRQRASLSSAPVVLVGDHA

PAK6 = molecular target: T9, PAK6 (Homo sapiens, UniProt Q9NQU5)
T9 construct: purchased Eurofins DiscoverX KINOMEscan
T9 sequence (Q9NQU5 whole entry): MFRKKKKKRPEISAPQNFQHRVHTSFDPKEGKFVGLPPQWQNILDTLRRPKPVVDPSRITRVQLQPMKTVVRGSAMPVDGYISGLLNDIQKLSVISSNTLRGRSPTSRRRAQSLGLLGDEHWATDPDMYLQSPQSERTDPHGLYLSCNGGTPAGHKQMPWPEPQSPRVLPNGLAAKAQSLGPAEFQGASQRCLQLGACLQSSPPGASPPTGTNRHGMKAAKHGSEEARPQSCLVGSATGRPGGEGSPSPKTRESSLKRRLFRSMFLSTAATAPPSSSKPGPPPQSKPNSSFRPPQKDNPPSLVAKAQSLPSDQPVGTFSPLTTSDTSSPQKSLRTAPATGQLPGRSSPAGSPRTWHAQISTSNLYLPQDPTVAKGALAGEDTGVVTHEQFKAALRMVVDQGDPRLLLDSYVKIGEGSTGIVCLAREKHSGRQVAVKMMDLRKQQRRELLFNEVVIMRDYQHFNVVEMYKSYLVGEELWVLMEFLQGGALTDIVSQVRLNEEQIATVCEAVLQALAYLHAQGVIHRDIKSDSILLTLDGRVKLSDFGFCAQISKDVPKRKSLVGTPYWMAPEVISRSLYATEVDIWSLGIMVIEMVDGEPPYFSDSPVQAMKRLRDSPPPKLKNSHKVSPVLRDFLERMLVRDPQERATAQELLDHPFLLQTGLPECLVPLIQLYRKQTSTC

BRK = molecular target: T10, BRK (Homo sapiens, UniProt Q13882)
T10 construct: purchased Eurofins DiscoverX KINOMEscan

PIM1 = molecular target: T11, PIM1 (Homo sapiens, UniProt P11309)
T11 construct: purchased Eurofins DiscoverX KINOMEscan
T11 sequence (P11309 whole entry): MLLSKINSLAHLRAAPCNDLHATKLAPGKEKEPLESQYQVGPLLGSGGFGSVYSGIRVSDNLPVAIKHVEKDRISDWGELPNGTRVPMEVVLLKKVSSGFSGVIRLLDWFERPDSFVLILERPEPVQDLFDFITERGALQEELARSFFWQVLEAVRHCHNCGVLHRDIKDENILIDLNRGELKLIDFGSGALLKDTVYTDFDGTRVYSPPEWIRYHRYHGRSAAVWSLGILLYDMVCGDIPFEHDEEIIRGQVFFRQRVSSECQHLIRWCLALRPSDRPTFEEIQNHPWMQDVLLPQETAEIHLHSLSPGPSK

[2] = molecular target: T12, RSK2(Kin.Dom.1-N-terminal) (Homo sapiens, UniProt P51812)
T12 construct: RSK2(Kin.Dom.1-N-terminal); purchased Eurofins DiscoverX KINOMEscan

EGFR(G719C) = molecular target: T13, EGFR(G719C) (Homo sapiens, UniProt P00533, G719C)
T13 construct: purchased Eurofins DiscoverX KINOMEscan

BTK = molecular target: T14, BTK (Homo sapiens, UniProt Q06187)
T14 construct: purchased Eurofins DiscoverX KINOMEscan

INSR = molecular target: T15, INSR (Homo sapiens, UniProt P06213)
T15 construct: purchased Eurofins DiscoverX KINOMEscan

NEK9 = molecular target: T16, NEK9 (Homo sapiens, UniProt Q8TD19)
T16 construct: purchased Eurofins DiscoverX KINOMEscan
T16 sequence (Q8TD19 1-979): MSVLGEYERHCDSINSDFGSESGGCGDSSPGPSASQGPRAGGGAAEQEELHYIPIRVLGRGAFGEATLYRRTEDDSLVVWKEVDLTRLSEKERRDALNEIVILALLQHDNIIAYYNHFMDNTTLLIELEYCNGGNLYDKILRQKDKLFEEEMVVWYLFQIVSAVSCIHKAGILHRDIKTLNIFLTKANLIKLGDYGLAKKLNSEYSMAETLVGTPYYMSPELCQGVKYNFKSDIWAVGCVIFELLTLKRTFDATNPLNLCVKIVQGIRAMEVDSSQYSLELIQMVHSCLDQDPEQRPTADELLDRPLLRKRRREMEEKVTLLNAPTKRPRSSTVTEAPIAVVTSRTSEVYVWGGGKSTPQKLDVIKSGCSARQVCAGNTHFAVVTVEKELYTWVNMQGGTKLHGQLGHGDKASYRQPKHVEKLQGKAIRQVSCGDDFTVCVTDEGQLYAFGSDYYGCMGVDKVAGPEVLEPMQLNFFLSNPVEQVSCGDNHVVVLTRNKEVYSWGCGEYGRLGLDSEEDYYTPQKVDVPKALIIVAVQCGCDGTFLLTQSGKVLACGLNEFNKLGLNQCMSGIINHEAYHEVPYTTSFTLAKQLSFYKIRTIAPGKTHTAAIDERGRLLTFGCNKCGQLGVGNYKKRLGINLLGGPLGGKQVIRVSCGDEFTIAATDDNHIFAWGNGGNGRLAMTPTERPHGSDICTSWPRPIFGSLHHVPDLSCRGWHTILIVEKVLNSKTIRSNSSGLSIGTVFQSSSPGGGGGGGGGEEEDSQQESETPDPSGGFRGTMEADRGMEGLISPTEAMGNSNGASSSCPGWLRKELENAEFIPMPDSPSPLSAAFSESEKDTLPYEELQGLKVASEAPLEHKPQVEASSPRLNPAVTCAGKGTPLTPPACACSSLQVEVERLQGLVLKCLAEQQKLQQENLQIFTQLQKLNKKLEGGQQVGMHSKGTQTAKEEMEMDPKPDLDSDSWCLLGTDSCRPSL

FGFR3(G697C) = molecular target: T17, FGFR3(G697C) (Homo sapiens, UniProt P22607, G697C)
T17 construct: purchased Eurofins DiscoverX KINOMEscan

MINK = molecular target: T18, MINK (Homo sapiens, UniProt Q8N4C8)
T18 construct: purchased Eurofins DiscoverX KINOMEscan
T18 sequence (Q8N4C8 whole entry): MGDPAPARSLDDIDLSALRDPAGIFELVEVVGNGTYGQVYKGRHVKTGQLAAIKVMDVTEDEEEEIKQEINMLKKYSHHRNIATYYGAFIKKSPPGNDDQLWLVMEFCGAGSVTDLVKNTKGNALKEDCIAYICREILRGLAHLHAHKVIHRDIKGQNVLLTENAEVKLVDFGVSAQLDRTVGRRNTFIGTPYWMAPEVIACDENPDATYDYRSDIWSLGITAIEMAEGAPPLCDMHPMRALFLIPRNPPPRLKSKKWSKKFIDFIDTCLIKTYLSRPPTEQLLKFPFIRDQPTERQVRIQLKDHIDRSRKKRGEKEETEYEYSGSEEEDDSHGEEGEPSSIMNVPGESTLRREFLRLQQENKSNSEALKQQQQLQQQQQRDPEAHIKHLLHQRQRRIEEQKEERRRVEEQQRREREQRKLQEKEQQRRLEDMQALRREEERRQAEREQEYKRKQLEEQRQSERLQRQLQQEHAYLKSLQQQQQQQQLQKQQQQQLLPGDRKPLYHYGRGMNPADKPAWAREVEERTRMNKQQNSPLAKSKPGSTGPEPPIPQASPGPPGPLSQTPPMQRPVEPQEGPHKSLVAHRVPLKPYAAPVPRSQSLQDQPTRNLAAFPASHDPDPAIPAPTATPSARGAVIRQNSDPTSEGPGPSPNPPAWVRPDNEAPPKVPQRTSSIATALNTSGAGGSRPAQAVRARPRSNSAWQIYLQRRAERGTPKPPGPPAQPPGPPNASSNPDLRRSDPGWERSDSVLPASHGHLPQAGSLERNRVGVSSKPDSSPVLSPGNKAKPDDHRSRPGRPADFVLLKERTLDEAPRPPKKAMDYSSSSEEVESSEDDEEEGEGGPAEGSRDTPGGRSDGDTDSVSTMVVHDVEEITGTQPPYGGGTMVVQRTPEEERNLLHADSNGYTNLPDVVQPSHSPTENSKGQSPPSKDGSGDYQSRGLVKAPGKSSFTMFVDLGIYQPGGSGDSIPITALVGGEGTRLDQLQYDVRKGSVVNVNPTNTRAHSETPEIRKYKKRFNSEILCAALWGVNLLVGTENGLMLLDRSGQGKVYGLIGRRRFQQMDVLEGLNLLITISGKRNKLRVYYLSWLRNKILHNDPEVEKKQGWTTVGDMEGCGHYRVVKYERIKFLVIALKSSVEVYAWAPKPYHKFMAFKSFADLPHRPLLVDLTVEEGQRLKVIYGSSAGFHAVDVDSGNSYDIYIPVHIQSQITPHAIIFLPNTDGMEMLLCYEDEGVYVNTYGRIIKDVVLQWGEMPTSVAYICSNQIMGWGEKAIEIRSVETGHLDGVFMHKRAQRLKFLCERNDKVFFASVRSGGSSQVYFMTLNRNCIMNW

CDK4-cyclinD1 = molecular target: T19, CDK4-cyclinD1 (Homo sapiens, UniProt P11802)
T19 construct: purchased Eurofins DiscoverX KINOMEscan
T19 sequence (P11802 whole entry): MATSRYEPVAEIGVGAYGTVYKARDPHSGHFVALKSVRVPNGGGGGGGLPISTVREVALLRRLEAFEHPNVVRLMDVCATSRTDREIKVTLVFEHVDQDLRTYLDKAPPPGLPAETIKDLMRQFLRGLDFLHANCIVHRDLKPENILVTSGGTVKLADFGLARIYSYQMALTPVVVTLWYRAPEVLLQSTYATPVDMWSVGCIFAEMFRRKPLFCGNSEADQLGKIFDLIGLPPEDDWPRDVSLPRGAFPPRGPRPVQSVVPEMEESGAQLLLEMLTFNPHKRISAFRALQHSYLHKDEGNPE
T19 sequence (P24385 whole entry partner): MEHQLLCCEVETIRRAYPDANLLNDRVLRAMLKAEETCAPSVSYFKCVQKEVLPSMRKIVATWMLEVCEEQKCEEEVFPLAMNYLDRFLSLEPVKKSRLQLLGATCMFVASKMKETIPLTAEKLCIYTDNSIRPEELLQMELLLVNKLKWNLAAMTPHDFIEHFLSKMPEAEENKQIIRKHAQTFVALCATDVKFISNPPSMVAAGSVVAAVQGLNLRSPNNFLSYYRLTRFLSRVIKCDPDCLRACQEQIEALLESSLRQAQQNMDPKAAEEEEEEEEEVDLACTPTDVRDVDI

SIK = molecular target: T20, SIK (Homo sapiens, UniProt P57059)
T20 construct: purchased Eurofins DiscoverX KINOMEscan

DAPK2 = molecular target: T21, DAPK2 (Homo sapiens, UniProt Q9UIK4)
T21 construct: purchased Eurofins DiscoverX KINOMEscan
T21 sequence (Q9UIK4 whole entry): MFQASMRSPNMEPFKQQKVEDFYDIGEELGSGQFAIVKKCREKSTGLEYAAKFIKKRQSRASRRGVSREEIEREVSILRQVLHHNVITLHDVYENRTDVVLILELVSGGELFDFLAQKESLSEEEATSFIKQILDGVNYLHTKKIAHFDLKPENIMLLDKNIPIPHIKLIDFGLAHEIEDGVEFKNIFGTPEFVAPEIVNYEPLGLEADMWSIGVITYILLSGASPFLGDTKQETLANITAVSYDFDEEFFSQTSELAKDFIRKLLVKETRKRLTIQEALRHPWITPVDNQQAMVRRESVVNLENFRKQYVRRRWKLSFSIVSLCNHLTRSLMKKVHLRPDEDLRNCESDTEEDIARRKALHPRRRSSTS

T2 sequence (Q9NY57 whole entry): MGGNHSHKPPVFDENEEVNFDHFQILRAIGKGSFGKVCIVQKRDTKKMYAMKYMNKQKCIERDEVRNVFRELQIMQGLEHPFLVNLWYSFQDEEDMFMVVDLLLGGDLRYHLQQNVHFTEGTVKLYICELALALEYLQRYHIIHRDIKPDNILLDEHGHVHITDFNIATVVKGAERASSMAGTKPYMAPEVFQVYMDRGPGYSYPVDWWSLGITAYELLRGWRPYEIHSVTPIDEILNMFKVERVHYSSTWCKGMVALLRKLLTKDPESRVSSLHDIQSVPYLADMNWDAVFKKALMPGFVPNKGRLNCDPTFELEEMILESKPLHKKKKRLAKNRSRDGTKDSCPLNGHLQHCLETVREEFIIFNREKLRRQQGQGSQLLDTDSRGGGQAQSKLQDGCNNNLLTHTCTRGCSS

SMILES | remaining binding at 1 µM (AAK1) [%] | remaining binding at 1 µM (YANK2) [%] | remaining binding at 1 µM [1] [%] | remaining binding at 1 µM (SGK2) [%] | remaining binding at 1 µM (CLK3) [%] | remaining binding at 1 µM (MARK2) [%] | remaining binding at 1 µM (MAP3K4) [%] | remaining binding at 1 µM (MKNK2) [%] | remaining binding at 1 µM (PAK6) [%] | remaining binding at 1 µM (BRK) [%] | remaining binding at 1 µM (PIM1) [%] | remaining binding at 1 µM [2] [%] | remaining binding at 1 µM (EGFR(G719C)) [%] | remaining binding at 1 µM (BTK) [%] | remaining binding at 1 µM (INSR) [%] | remaining binding at 1 µM (NEK9) [%] | remaining binding at 1 µM (FGFR3(G697C)) [%] | remaining binding at 1 µM (MINK) [%] | remaining binding at 1 µM (CDK4-cyclinD1) [%] | remaining binding at 1 µM (SIK) [%] | other results
Clc1cc(NCC2CC2)c2ncc(-c3ccc4[nH]ncc4c3)n2n1 [compound 2, 6-Chloro-N-(cyclopropylmethyl)-3-(1H-indazol-5-yl)imidazo[1,2-b]pyridazin-8-amine] | 39 | 94 | 100 | 89 | 70 | 96 | 74 | 80 | 100 | 87 | 100 | 37 | 91 | 98 | 99 | 100 | 78 | 72 | 88 | 98 | remaining binding at 1 µM (DAPK2): 91%
O=C(CN1CCOCC1)N[C@H]1CC[C@H](Nc2cc(Cl)nn3c(-c4ccc5[nH]ncc5c4)cnc23)CC1 [compound 26] | 28 | 100 | 99 | 100 | 52 | 88 | 86 | 67 | 98 | 85 | 68 | 19 | 93 | 100 | 91 | 91 | 85 | 57 | 93 | 89 | remaining binding at 1 µM (DAPK2): 69%
CN1CCC(CNc2cc(Cl)nn3c(-c4cc5nc(Nc6ccccc6)[nH]c5cc4F)cnc23)CC1 [compound 31, 6-Chloro-3-(6-fluoro-2-(phenylamino)-1H-benzo[d]imidazol-5-yl)-N-((1-methylpiperidin-4-yl)methyl)imidazo[1,2-b]pyridazin-8-amine] | 100 | 100 | 91 | 83 | 100 | 100 | 86 | 74 | 97 | 93 | 95 | 100 | 71 | 70 | 97 | 100 | 91 | 87 | 87 | 91 | remaining binding at 1 µM (DAPK2): 98%
